Measurements taken from paper PMC7352952, “Peptides Derived from (RRWQWRMKKLG)2-K-Ahx Induce Selective Cellular Death in Breast Cancer Cell Lines through Apoptotic Pathway” (International Journal of Molecular Sciences, 2020).
≈ marks a conversion by molar mass, not a printed value. Bridge positions count the residues as written; N and C are the ends. Square brackets hold non-standard residues; d marks the D form. Peptide text beside a SMILES is read from it. I, II: the chains in the order shown. Ahx = NCCCCCC(=O)O

Assays:
[1] = system: MCF-12 cell line; format: cell-based, human
Protocol: (§1) For all cell lines, the medium used was Dulbecco’s Modified Eagle’s Medium (DMEM)/Nutrient Mixture F-12 Ham. For the HTB-132, MCF-7, and MCF-12A lines, the medium was supplemented with 10% fetal bovine serum (SFB), and 1.5 g/L NaHCO3 and NaOH were added up to pH 7.4, amphotericin (200 μg/mL), and 1% penicillin and streptomycin. For the primary culture cells of bovine mammary epithelium and fibroblasts, in addition to the above, hydrocortisone (250 μg/mL) was added. All media were filtered through a 0.22 μm membrane.
(§2) Briefly, the cells were seeded with a complete medium in 96-well plates at a rate of 10,000 cells and 100 µL per well, and adhesion to the plates was allowed for 24 h. Subsequently, the complete medium was removed and an incomplete medium was added for synchronization for another 24 h. The cells were then incubated at 37 °C for 2, 24, or 48 h with 100 μL of peptide at the concentrations to be evaluated (200, 100, 50, 25, 12.5, 6.25 and 3.1 μg/mL). Next, the peptide was removed from the box, and 100 µL of incomplete medium with 10% 3-4,5-dimethylthiazol-2-yl-2,5-diphenyltetrazole (MTT) bromide was added and incubated for 4 h. The medium was replaced with 100 μL of isopropanol (IPA), and after 30 min of incubation at 37 °C, the absorbance was measured at 575 nm. As a negative control, an incomplete culture medium with 10% MTT was used, and as a positive control, cells without MTT treatment were used.

[2] = system: MCF-7 cells; experiment: Cell morphology and size by inverted microscope; format: cell-based, human; conditions: MCF-7, 90 min of treatment, 37 °C; from 100.27 μm before; average of 100 measurements; Figure 3: 100 µg/mL
Protocol: Cell morphology was monitored before and after treatment with ^26[L] or ^26[F] at different times, using an inverted microscope coupled to an AxioCam ICc1 camera (Figure 3). The untreated cells had normal morphologic characteristics as polygonal, flattened, and elongated cells with long and defined axons (data not shown). After 5 min of treatment with the peptide, most cells retained their morphology; however, some began to appear rounded and shrunken. After 90 min, the cells treated with the peptide (^26[L] or ^26[F]) took on a rounded shape, and shrinkage was observed, going from an average size of 100.27 μm to 39.38 µm. […] At 24 h of treatment, the appearance of small vacuoles was observed, presumably associated with late apoptosis events. Finally, it was observed that the effect of the peptide was sustained up to 48 h since at that time no recovery of cell morphology was observed.
Figure 3 Micrography of MCF-7 cells treated with peptide ^26[F] at 100 µg/mL. The cells were incubated in the absence (A) or the presence of the peptide at (B) 5 min, (C) 90 min, (D) 240 min, (E) 24 h, and (F) 48 h at 37 °C. The cell size was determined as an average of 100 measurements, using an AxioCam ICc1 camera.

[3] = system: HTB-132 cell line; experiment: MTT viability test, HTB-132 cells; format: cell-based, human; conditions: for cytotoxic effect against HTB-132 compared with ^26[M] (in words) / IC50, cytotoxic effect, HTB-132: MTT; for cytotoxic effect against HTB-132 compared with ^26[M] (in words) / IC50: 24 h; for IC50, cytotoxic effect, HTB-132: 24 h at 37 °C, mean of n = 3; for IC50: human, pH 7.4
Protocol: as §1, §2

[4] = system: MCF-7 cell line; experiment: MTT viability test, MCF-7 cells; format: cell-based, human; conditions: for cytotoxic effect against MCF-7 compared with ^26[M] (in words) / IC50: 24 h; for IC50, cytotoxic effect, MCF-7: 24 h at 37 °C, three independent experiments with n = 4 each; for IC50: human, pH 7.4
Protocol: as §1, §2

[5] = system: MDA-MB 231 breast cancer cells; conditions: cited from earlier work
Excerpt: (§3) Breast cancer is the most common cancer type diagnosed worldwide. There are 2.1 million cases annually, and 627,000 deaths of women due to this disease were reported in 2018 [5]. […] However, when this motif was modified or included in longer sequences, the cytotoxic effect against human cancer cell lines increased. In ...

[6] = system: MDA-MB 468 breast cancer cells; conditions: cited from earlier work
Excerpt: as §3

Compound	cytotoxic effect against MCF-12 compared with HTB-132 and MCF-7 (in words) [1]	IC50, non-tumorigenic cell line MCF-12 ([1]; 24 h) [µg/mL]	average cell size after treatment [2] [µm]	cytotoxic effect against HTB-132 compared with ^26[M] (in words) [3]	IC50, cytotoxic effect, HTB-132 [3] [µg/mL]	IC50 [3] [µM]	cytotoxic effect against MCF-7 compared with ^26[M] (in words) ([4]; MTT)	IC50, cytotoxic effect, MCF-7 ([4]; MTT) [µg/mL]	maximum cytotoxic effect, MCF-7 ([4]; MTT, peptide 200 µg/mL, regardless of treatment time (2, 24, 48 h)) [%]	IC50 [4] [µM]	cytotoxic effect against MDA-MB-231 (in words) [5]	cytotoxic effect against MDA-MB-468 (in words) [6]
CC(C)C[C@H](NC(=O)[C@H](CCCCN)NC(=O)[C@H](CCCCN)NC(=O)[C@H](CC(C)C)NC(=O)[C@H](CCCNC(=N)N)NC(=O)[C@H](Cc1c[nH]c2ccccc12)NC(=O)[C@H](CCC(N)=O)NC(=O)[C@H](Cc1c[nH]c2ccccc12)NC(=O)[C@H](CCCNC(=N)N)NC(=O)[C@@H](N)CCCNC(=N)N)C(=O)NCC(=O)NCCCC[C@H](NC(=O)CNC(=O)[C@H](CC(C)C)NC(=O)[C@H](CCCCN)NC(=O)[C@H](CCCCN)NC(=O)[C@H](CC(C)C)NC(=O)[C@H](CCCNC(=N)N)NC(=O)[C@H](Cc1c[nH]c2ccccc12)NC(=O)[C@H](CCC(N)=O)NC(=O)[C@H](Cc1c[nH]c2ccccc12)NC(=O)[C@H](CCCNC(=N)N)NC(=O)[C@@H](N)CCCNC(=N)N)C(=O)NCCCCCC(N)=O [^26[L], (RRWQWRLKKLG)2-K-Ahx] (I: H-RRWQWRLKKLGK[Ahx]-NH2 / II: H-RRWQWRLKKLG; amide I:12-II:C)	lower cytotoxic effect against MCF-12 cells than against breast cancer cell lines	> 100	39.38	greater cytotoxic effect against cancer cells than the original peptide	32 (≈ 9.77 µM)	10	greater cytotoxic effect against MCF-7 cells than the peptide	66 (≈ 20.1 µM)	~85	20	–	–
CC(C)C[C@H](NC(=O)[C@H](CCCCN)NC(=O)[C@H](CCCCN)NC(=O)[C@H](CC(=O)O)NC(=O)[C@H](CCCNC(=N)N)NC(=O)[C@H](Cc1c[nH]c2ccccc12)NC(=O)[C@H](CCC(N)=O)NC(=O)[C@H](Cc1c[nH]c2ccccc12)NC(=O)[C@H](CCCNC(=N)N)NC(=O)[C@@H](N)CCCNC(=N)N)C(=O)NCC(=O)NCCCC[C@H](NC(=O)CNC(=O)[C@H](CC(C)C)NC(=O)[C@H](CCCCN)NC(=O)[C@H](CCCCN)NC(=O)[C@H](CC(=O)O)NC(=O)[C@H](CCCNC(=N)N)NC(=O)[C@H](Cc1c[nH]c2ccccc12)NC(=O)[C@H](CCC(N)=O)NC(=O)[C@H](Cc1c[nH]c2ccccc12)NC(=O)[C@H](CCCNC(=N)N)NC(=O)[C@@H](N)CCCNC(=N)N)C(=O)NCCCCCC(N)=O [^26[D], (RRWQWRDKKLG)2-K-Ahx] (I: H-RRWQWRDKKLGK[Ahx]-NH2 / II: H-RRWQWRDKKLG; amide I:12-II:C)	–	–	–	lower cytotoxic effect against HTB-132 cells than the original dimeric peptide	> 200	> 60	–	–	–	–	–	–
CC(C)C[C@H](NC(=O)[C@H](CCCCN)NC(=O)[C@H](CCCCN)NC(=O)[C@H](CCCCN)NC(=O)[C@H](CCCNC(=N)N)NC(=O)[C@H](Cc1c[nH]c2ccccc12)NC(=O)[C@H](CCC(N)=O)NC(=O)[C@H](Cc1c[nH]c2ccccc12)NC(=O)[C@H](CCCNC(=N)N)NC(=O)[C@@H](N)CCCNC(=N)N)C(=O)NCC(=O)NCCCC[C@H](NC(=O)CNC(=O)[C@H](CC(C)C)NC(=O)[C@H](CCCCN)NC(=O)[C@H](CCCCN)NC(=O)[C@H](CCCCN)NC(=O)[C@H](CCCNC(=N)N)NC(=O)[C@H](Cc1c[nH]c2ccccc12)NC(=O)[C@H](CCC(N)=O)NC(=O)[C@H](Cc1c[nH]c2ccccc12)NC(=O)[C@H](CCCNC(=N)N)NC(=O)[C@@H](N)CCCNC(=N)N)C(=O)NCCCCCC(N)=O [^26[K], (RRWQWRKKKLG)2-K-Ahx] (I: H-RRWQWRKKKLGK[Ahx]-NH2 / II: H-RRWQWRKKKLG; amide I:12-II:C)	–	–	–	lower cytotoxic effect against HTB-132 cells than the original dimeric peptide	> 200	> 60	–	–	–	–	–	–
CC(C)C[C@H](NC(=O)[C@H](CCCCN)NC(=O)[C@H](CCCCN)NC(=O)[C@H](C)NC(=O)[C@H](CCCNC(=N)N)NC(=O)[C@H](Cc1c[nH]c2ccccc12)NC(=O)[C@H](CCC(N)=O)NC(=O)[C@H](Cc1c[nH]c2ccccc12)NC(=O)[C@H](CCCNC(=N)N)NC(=O)[C@@H](N)CCCNC(=N)N)C(=O)NCC(=O)NCCCC[C@H](NC(=O)CNC(=O)[C@H](CC(C)C)NC(=O)[C@H](CCCCN)NC(=O)[C@H](CCCCN)NC(=O)[C@H](C)NC(=O)[C@H](CCCNC(=N)N)NC(=O)[C@H](Cc1c[nH]c2ccccc12)NC(=O)[C@H](CCC(N)=O)NC(=O)[C@H](Cc1c[nH]c2ccccc12)NC(=O)[C@H](CCCNC(=N)N)NC(=O)[C@@H](N)CCCNC(=N)N)C(=O)NCCCCCC(N)=O [^26[A], (RRWQWRAKKLG)2-K-Ahx] (I: H-RRWQWRAKKLGK[Ahx]-NH2 / II: H-RRWQWRAKKLG; amide I:12-II:C)	–	–	–	–	–	–	greater cytotoxic effect against MCF-7 cells than the peptide	> 200	–	> 60	–	–
RRWQWR [minimal motif peptide of LfcinB, reference compound]	–	–	–	–	–	–	–	–	–	–	low cytotoxic effect	low cytotoxic effect
